Read-outs that look alike come from different tables or passages of the source.
Assays:
[1] = test system: A375 human melanoma xenografts; assay: Example 7 efficacy study in A375 human melanoma xenografts (tumor volume, T/C, TGI); format: in vivo, BALB/c nude mice; conditions: 100 mg/kg, p.o., QD × 14 days
Experimental: For efficacy study, agents were tested in the A375 human melanoma xenografts. Compound 118, Compound 156, and Compound 180 were administered to BALB/c nude mice bearing A375 xenografts from day 0 and dosed p.o. twice per day (BID). Compound 141 was administered from day 0 and dosed p.o. twice per day (BID) or dosed p.o. daily (QD) from day 1. Compound 141, Compound 118, Compound 156, and Compound 180 were dosed at 10 mg/kg for 14 days. The known BRAF inhibitor Dabrafenib was used as a positive control. Dabrafenib was administered from day 1 and dosed p.o. daily (QD) for 14 days and dosed at 100 mg/kg.
The A375 tumor cells were maintained in vitro in DMEM medium supplemented with […] and 1% Penicillin-Streptomycin at 37° C. in an atmosphere of 5% CO2 in air. The tumor cells were routinely subcultured twice weekly. The cells growing in an exponential growth phase were harvested and counted for tumor inoculation.
Each mouse was inoculated subcutaneously at the right flank with A375 tumor cells (5×10^6) in 0.2 mL of PBS with Matrigel (PBS: Matrigel=1:1) supplemented for tumor development. Animals were grouped when the average tumor volume reached 246 mm^3 for efficacy study and 390 mm^3 for PKPD study on day 17 after tumor inoculation. The test articles administration and the animal numbers in each group are shown in the above experimental tables.
Prior to the onset of drug treatment, mice were measured for tumor size in two dimensions using a caliper, and the tumor volume (mm^3) was calculated using formula V=0.5 a×b^2 where a and b are the long and short diameters of the tumor in mm, respectively. Mice were randomized into different treatment groups based on the tumor volume.
The major endpoint was to see if the tumor growth could be delayed or mice could be cured. The tumor size was then used for calculations of T/C value. The T/C value (in percent) is an indication of antitumor effectiveness; T and C are the mean volumes of the treated and control groups, respectively on specified day.
TGI was calculated for each group using the formula: TGI (%)=[1−(Ti−T0)/(Ci−C0)]×100; Ti is the average tumor volume of a treatment group on a given day, T0 is the average tumor volume of the treatment group on the day of treatment start, Ci is the average tumor volume of the vehicle control group on the same day with Ti, and C0 is the average tumor volume of the vehicle group on the day of treatment start.

[2] = Example 9 pharmacokinetics assay for the PK and PD study Part I, II and III (plasma, tumor, liver); format: in vivo, BALB/c nude mice; conditions: mouse, po, 100 mg/kg, p.o., single dose, ± SEM
Experimental: For the PK and PD study Part I, agents were administered to BALB/c nude mice bearing A375 human melanoma xenografts tumors. Dabrafenib, Compound 218 and Compound 157 were dosed via p.o. once on day 1. Dabrafenib was dosed at 100 mg/kg. Compound 218 and Compound 157 were dosed at 10 mg/kg.
For the PK and PD study Part II, agents were administered to BALB/c nude mice bearing A375 human melanoma xenografts tumors. Compound 133, Compound 144 and Compound 198 were dosed at 10 mg/kg via p.o. once on day 1.
For the PK and PD study Part III, agent was administered to BALB/c nude mice bearing A375 human melanoma xenografts tumors. Compound 204 were dosed at 10 mg/kg via p.o. once on day 1.
The plasma samples were collected at predetermined time points for PK analysis. The mice were euthanized at predetermined time points post the treatment. The blood samples were collected into the 1.5 mL Eppendorf tubes containing 15 μL of 0.5 M EDTA-K2. And then the anticoagulant blood samples were centrifuged at 2,500 g at 4° C. for 15 minutes. The plasma samples were separated into 2 aliquots. The 1st was used for PK analysis, and the 2nd served as backup. The samples were stored at −80° C. before bioanalysis.
The tumor samples were collected at predetermined time points for PK and WB analysis. The tumor was dissected out and split into 3 parts. The 1st part was used for PK analysis, the 2nd part was used for WB analysis and the last one served as backup for study. The samples were transferred into pre-labeled tubes and quickly froze in liquid nitrogen within 2 minutes after dissection. The samples were stored at −80° C. before bioanalysis.
Liver samples were collected at predetermined time points for PK analysis. The left lobe of the liver was dissected out and split into 2 parts. The 1st part was used for PK analysis and the 2nd part served as the backup for the study. The samples were transferred into pre-labeled tubes and quickly froze in liquid nitrogen within 2 minutes after dissection. The samples were stored at −80° C. before bioanalysis.
The harvested plasma, tumor and liver samples were processed for pharmacokinetics analysis by LC-MS/MS with a concentration range of 5.00-10,000 ng/mL for Compound 218, Compound 157 and Compound 133 in plasma, 0.500-1,000 ng/ml for Compound 218 in liver and tumor homogenate, 0.200-400 ng/mL for Compound 157, Dabrafenib and Compound 133 in liver and tumor homogenate, 0.500-1000 ng/mL for Dabrafenib and Compound 204 in plasma, 0.200-200 ng/mL for Compound 204 in liver and tumor homogenate, 20.0-20,000 ng/mL for Compound 144 and Compound 198 in plasma, 1.00-1,000 ng/mL for Compound 144 and Compound 198 in liver and tumor homogenate.

[3] = liver, read-out: Mean Concentration in Liver
[4] = plasma, read-out: Mean Concentration in Plasma
[5] = tumor, read-out: Mean Concentration in Tumor

With `CC(C)(C)c1nc(-c2cccc(NS(=O)(=O)c3c(F)cccc3F)c2F)c(-c2ccnc(N)n2)s1` [Dabrafenib, dabrafenib, reference compound] the T/C ([1]; PG-D14) was 55.8%, the TGI ([1]; PG-D14) was 54.3% and the “Tumor Size on PG-D14 (mean ± SEM)” value ([1]; PG-D14) was 741 ± 40 mm^3. The “Tumor Volume (mean ± SEM)” value ([1]; day 0) was 246 ± 10 mm^3, the “Tumor Volume (mean ± SEM)” value ([1]; day 3) was 394 ± 20 mm^3 and the “Tumor Volume (mean ± SEM)” value ([1]; day 7) was 515 ± 30 mm^3. For the same molecule, the “Tumor Volume (mean ± SEM)” value ([1]; day 10) was 608 ± 21 mm^3, the “Tumor Volume (mean ± SEM)” value ([1]; day 14) was 741 ± 40 mm^3 and the concentration at 6 h [2, 3] was 1010 ± 111 ng/g. The concentration at 12 h [2, 3] was 277 ± 125 ng/g, the concentration at 1 h [2, 4] was 5920 ± 2380 ng/mL and the concentration at 6 h [2, 4] was 259 ± 45.4 ng/mL. The concentration at 12 h [2, 4] was 88.7 ± 42.7 ng/mL, the concentration at 24 h [2, 4] was 1.09 ± 0.467 ng/mL and the concentration at 1 h [2, 5] was 4920 ± 1490 ng/g. It also gave a concentration at 6 h [2, 5] of 237 ± 4.91 ng/g, a concentration at 12 h [2, 5] of 54 ± 13.5 ng/g and a concentration at 24 h [2, 5] of 1.87 ± 0.9 ng/g.

From patent US20260297060A1, “COMPOUNDS FOR THE DEGRADATION OF MUTANT BRAF” (C4 THERAPEUTICS, INC., priority 2023, published 2026)
